Data published in PMC12234328, “A naphthalimide derivative exerts potent antiplatelet and antithrombotic activities without a bleeding tendency” (Frontiers in Pharmacology, 2025).

Tests used:
[1] = test system: human platelet suspensions stimulated with thrombin; test: Thrombin-induced platelet aggregation; assay type: cell-based; conditions: 5–50 μM, 0.02 U/mL thrombin
Excerpt: (§1) This study received approval from the Taipei Medical University–Joint Institutional Review Board (TMU-JIRB-No. N202003148) and adhered to the principles of the Declaration of Helsinki. Informed consent was obtained from all volunteers before their participation. Human platelets were washed and prepared according to previously established methods ([Lu et al., 2019]). Whole blood was collected from healthy participants who had not taken any medications, including nonsteroidal anti-inflammatory drugs or aspirin, in the preceding 2 weeks. The blood was drawn into polypropylene tubes containing an acid citrate–dextrose solution (9:1, v/v). After mixing, the samples were centrifuged at 120 g for 10 min. The upper layer of platelet-rich plasma was collected and supplemented with prostaglandin E1 and heparin. Following further centrifugation at 500 g for 10 min, the platelet pellets were washed twice. The platelets were then resuspended in Tyrode’s solution containing 3.5 mg/mL bovine serum albumin (B.S.A.) to create platelet suspensions. The final Ca^2+ concentration of the platelet suspensions (3.6 × 10^8 cells/mL) was 1 mM.
(§2) Platelet aggregation was measured using a lumi-aggregometer (Payton, Scarborough, Canada) through the turbidimetric method ([Lu et al., 2019]). […] Subsequently, various agonists were added and platelet aggregation was then recorded for an additional 6 min. […]

[2] = test system: GPIIb–IIIa activation in human platelets; test: GPIIb-IIIa activation by flow cytometry (APC-PAC-1); assay type: cell-based; conditions: 2.5 and 5 μM, collagen 1 μg/mL, n = 4
Protocol: Flow cytometry was performed as previously described ([Lien et al., 2017]). After 20 min of collagen stimulation, the human platelets were fixed and labeled with APC-conjugated PAC-1 antibodies for 30 min to detect the level of GPIIb–IIIa activation. After centrifugation and washing, the platelets were suspended in 1 mL of phosphate-buffered saline and analyzed using a CytoFLEX flow cytometer (Beckman Coulter Life Sciences, Indianapolis, IN, United States). In the flow cytometry setup, platelets were gated using forward scatter and side scatter, and the number of events was set to stop at 10,000 counts. All experiments were performed at least three times to ensure reliable results.
FIGURE 8 Effects of compound 6 on ATP release, calcium mobilization, and GPIIb–IIIa activation triggered by collagen in human platelets. Washed platelets (3.6 × 10^8 cells/mL) were treated with compound 6 (C6, 2.5 and 5 μM) or DMSO and then stimulated with collagen (1 μg/mL) to trigger ATP release (A), calcium mobilization (B), and GPIIb–IIIa activation (C) that were detected using luciferase/luciferin, Fura-2 AM, and APC–PAC1 antibodies, respectively. Data (A–C) are presented as means ± SEM (n = 4). **p < 0.01 and ***p < 0.001 compared with the resting group. #p < 0.05, ##p < 0.01, and ###p < 0.001 compared with the DMSO (solvent control) group.

[3] = test system: tail bleeding (hemostasis); test: Tail-bleeding assay; assay type: in vivo; conditions: 0.3, 0.6 or 1.2 mg/kg, mice, n = 6
Protocol: For the tail-bleeding assay, the mice were anesthetized with an oxygen–air mixture containing 3% isoflurane at a gas flow rate of 1.5–2 L/min. A bolus dose of compound 6 (0.3 mg/kg, 0.6 mg/kg, or 1.2 mg/kg), DMSO (solvent control; 1.1 g/kg), or aspirin (20 mg/kg; positive control) was intraperitoneally administered for 30 min. A 3-mm incision was then made at the tail tip to induce bleeding. The bleeding tail stump was immediately immersed in saline, and the bleeding time was recorded. […] A formula for dose translation based on the […] was used to calculate the dose for use in the mice ([Reagan-Shaw et al., 2008]).
FIGURE 3 Effects of compound 6 on thrombosis and hemostasis in mice. Mice were treated with compound 6 (0.3, 0.6, or 1.2 mg/kg), DMSO (solvent control), or aspirin (20 mg/kg; positive control) via intravenous route for 10 min. (A) The microthrombus formation (arrows) in mesenteric venules. Scale bar = 30 μm. […] Each point on the plot indicates a mouse (n = 6). Data (A,B) are presented as means ± SEM (n = 6). *p < 0.05 and ***p < 0.001 compared with the DMSO group.

[4] = test system: human platelet suspensions stimulated with U46619; test: U46619-induced platelet aggregation; assay type: cell-based; conditions: 5–50 μM, 1 μM U46619
Excerpt: as §1, §2

With `CCCCN1C(=O)c2cccc3c(NCCNC(=O)C45CC6CC(CC(C6)C4)C5)ccc(c23)C1=O` [compound 6] the “Effect on thrombin-induced platelet aggregation” value [1] was “did not significantly affect”, the “GPIIb–IIIa activation” value [2] was “significantly reduce” and the Duration of tail-bleeding [3] was “did not significantly affect”. The “Effect on U46619-induced platelet aggregation” value [4] was “did not significantly affect”.
